Assay results published in ChEMBL document CHEMBL1201862, “PubChem BioAssay data set” (2004).
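Each compound was tested at five concentrations against cells in 96-well plates for 48 hours. GI50 marks 50% less growth.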 Calls of active or inactive are those of the source. Cut-off read from the data, not from the text of the source: active = GI50 up to about 1.1 µM and inactive = higher.

Key:
Assay in all cases: NCI tumour cell line growth inhibition, 48 h
NCI-H522 = system: NCI-H522
OVCAR-4 = system: OVCAR-4
M14 = system: M14
IGROV-1 = system: IGROV-1
RPMI-8226 = system: RPMI-8226
UACC-62 = system: UACC-62
M19-MEL = system: M19-MEL
HCT-116 = system: HCT-116
RXF 393 = system: RXF 393
DU-145 = system: DU-145
HOP-62 = system: HOP-62
UACC-257 = system: UACC-257
LOX IMVI = system: LOX IMVI
OVCAR-8 = system: OVCAR-8
K562 = system: K562
U-251 = system: U-251
SR = system: SR
Hs-578T = system: Hs-578T
786-0 = system: 786-0
HCC 2998 = system: HCC 2998

In the case of `CC12OOC(c3ccccc31)c1c2ccc2ccccc12` (stereo not drawn), the GI50 (NCI-H522) is reported as 0.843 µM (active), the GI50 (OVCAR-4) is reported as 0.8 µM (active) and the GI50 (M14) is reported as 9.23 µM (inactive). For the same molecule, the GI50 (IGROV-1) was 1.53 µM (inactive), the GI50 (RPMI-8226) was 2.45 µM (inactive) and the GI50 (UACC-62) was 8.26 µM (inactive). The GI50 (M19-MEL) was 3.13 µM (inactive), the GI50 (HCT-116) was 1.73 µM (inactive) and the GI50 (RXF 393) was 1.18 µM (inactive). The GI50 (DU-145) was 18.5 µM (inactive), the GI50 (HOP-62) was 16.2 µM (inactive) and the GI50 (UACC-257) was 13.4 µM (inactive). For the same molecule, the GI50 (LOX IMVI) was 2.12 µM (inactive), the GI50 (OVCAR-8) was 6.71 µM (inactive) and the GI50 (K562) was 1.65 µM (inactive). For the same molecule, the GI50 (U-251) was 14.7 µM (inactive), the GI50 (SR) was 0.807 µM (active) and the GI50 (Hs-578T) was 18.9 µM (inactive). The GI50 (786-0) was 8.53 µM (inactive) and the GI50 (HCC 2998) was 5.05 µM (inactive).

`CCOC(=O)C(N)CSC(=O)NC` (stereo not drawn) was tested, and the GI50 (NCI-H522) was 102 µM (inactive), the GI50 (OVCAR-4) was 219 µM (inactive) and the GI50 (M14) was 67.9 µM (inactive). For the same molecule, the GI50 (IGROV-1) was 155 µM (inactive), the GI50 (RPMI-8226) was 20.1 µM (inactive) and the GI50 (UACC-62) was 81.8 µM (inactive). The GI50 (M19-MEL) was 64.6 µM (inactive), the GI50 (HCT-116) was > 89.7 µM (inactive) and the GI50 (RXF 393) was 105 µM (inactive). The GI50 (DU-145) was 268 µM (inactive), the GI50 (HOP-62) was 154 µM (inactive) and the GI50 (UACC-257) was 208 µM (inactive). The GI50 (LOX IMVI) was 40.4 µM (inactive), the GI50 (OVCAR-8) was 97.7 µM (inactive) and the GI50 (K562) was 45.3 µM (inactive). For the same molecule, the GI50 (U-251) was 121 µM (inactive), the GI50 (SR) was 45.1 µM (inactive) and the GI50 (Hs-578T) was 204 µM (inactive). For the same molecule, the GI50 (786-0) was 73.6 µM (inactive) and the GI50 (HCC 2998) was 271 µM (inactive).

`CN(C)c1n/c(=N/c2cccc(Cl)c2)ss1` was tested, and the GI50 (NCI-H522) was 1.16 µM (inactive), the GI50 (OVCAR-4) was 14.6 µM (inactive) and the GI50 (M14) was 14.6 µM (inactive). For the same molecule, the GI50 (IGROV-1) was 20.3 µM (inactive), the GI50 (RPMI-8226) was 0.951 µM (active) and the GI50 (UACC-62) was 10.8 µM (inactive). The GI50 (M19-MEL) was 17.1 µM (inactive), the GI50 (HCT-116) was 11.9 µM (inactive) and the GI50 (RXF 393) was 16.7 µM (inactive). For the same molecule, the GI50 (HOP-62) was 68.5 µM (inactive), the GI50 (UACC-257) was 15.6 µM (inactive) and the GI50 (LOX IMVI) was 14.5 µM (inactive). For the same molecule, the GI50 (OVCAR-8) was 12.9 µM (inactive), the GI50 (K562) was 9.08 µM (inactive) and the GI50 (U-251) was 11.8 µM (inactive). The GI50 (SR) was 4.12 µM (inactive), the GI50 (786-0) was 12.9 µM (inactive) and the GI50 (HCC 2998) was 20.4 µM (inactive).

For `O=C1c2nc3n(c2C(=O)c2c1nc1n2CCC1)CCC3`, the GI50 (NCI-H522) was 6.44 µM (inactive), the GI50 (OVCAR-4) was 4.71 µM (inactive) and the GI50 (M14) was 1.76 µM (inactive). The GI50 (IGROV-1) was 11.5 µM (inactive), the GI50 (RPMI-8226) was 15.1 µM (inactive) and the GI50 (UACC-62) was 1.85 µM (inactive). The GI50 (M19-MEL) was 0.184 µM (active), the GI50 (HCT-116) was 3.03 µM (inactive) and the GI50 (RXF 393) was 2.74 µM (inactive). The GI50 (DU-145) was > 10 µM (inactive), the GI50 (HOP-62) was 4.62 µM (inactive) and the GI50 (UACC-257) was 2.2 µM (inactive). The GI50 (LOX IMVI) was 3.1 µM (inactive), the GI50 (OVCAR-8) was 5.46 µM (inactive) and the GI50 (K562) was 13 µM (inactive). For the same molecule, the GI50 (U-251) was 6.79 µM (inactive), the GI50 (SR) was 3.01 µM (inactive) and the GI50 (Hs-578T) was > 10 µM (inactive). For the same molecule, the GI50 (786-0) was 5.25 µM (inactive) and the GI50 (HCC 2998) was 8.22 µM (inactive).
